Blank lines part the entries; values can stand above or below the compound they belong to.
Assays:
Assay type in all cases: physicochemical
[1] = Drug stabilization effect under daylight exposure (Test Examples 182 to 211); set-up: key to Appearance (visual determination): ◯: no change; Δ: almost no change; x: change; settings: photostabilizer 0.05 wt %, daylight exposure (80 MJ); for Remaining ratio (%): liquid chromatography
Protocol: For observation of the change of the appearance of each test sample (determination based on visual observation) and the measurement of the remaining ratio by liquid chromatography before and after daylight exposure (80 MJ), the test sample was prepared.

[2] = Dye stabilization effect under daylight exposure (Test Examples 6-91); set-up: key to Δ E: color difference ΔE in Lab vs. color before daylight exposure; key to Appearance (visual determination): ◯: no change; Δ: almost no change; x: change; settings: photostabilizer 0.05 wt %, daylight exposure (80 MJ)
Protocol: For observation of the change of the appearance of each test sample (determination based on visual observation) and the measurement of color difference (ΔE) before and after daylight exposure (80 MJ), the test sample was prepared.
(§1) With a spectrophotometer, the color was measured on the Lab coordinate system, to calculate the color difference on the basis of the color before daylight exposure. More specifically, the color difference (ΔE) was calculated on the basis of the measured values (L1, a1, b1) before daylight exposure.

[3] = Stabilization effect on perfume under daylight exposure (Test Examples 92 to 181); set-up: key: ◯: no change; Δ: almost no change; x: change; settings: daylight exposure (80 MJ)
Protocol: Each test sample was prepared for observation of the change of the odor of the test sample (determined by perfume coordinator) before and after daylight exposure (80 MJ).

[4] = Dye stabilization effect in blend with sequestering agents (Test Examples 212 to 275); settings: daylight exposure (80 MJ)
Protocol: Each test sample was prepared for observation of the change of the appearance of each test sample (determined visually) and measurement of the color difference (ΔE) before and after daylight exposure (80 MJ).
as §1

[5] = drug Dipotassium glycyrrhizinate 0.05 wt %
[6] = drug L-ascorbic acid 2-glucoside 2.0 wt %
[7] = drug dibutylhydroxytoluene 0.01 wt %
[8] = drug dl-α-tocopherol 2-L-ascorbic acid phosphate diester potassium salt 0.01 wt %
[9] = dye Blue 1 (Brilliant Blue FCF) 0.0001 wt %
[10] = dye Green 3 (Fast Green FCF) 0.001 wt %
[11] = dye Red 227 (Acid Fuchsine D) 0.0001 wt %
[12] = dye Yellow 5 (Sunset Yellow FCF) 0.001 wt %
[13] = dyes Red 106 (Acid red) 0.00001 + Yellow 203 (Quinoline Yellow WS) 0.0001 wt %
[14] = dyes Red 213 (Rhodamine B) 0.00001 + Blue 1 (Brilliant Blue FCF) 0.00001 wt %
[15] = dyes Red 227 (Acid Fuchsine D) 0.0001 + Yellow 5 (Sunset Yellow FCF) 0.0001 wt %
[16] = dyes Red 401 (Violanin R) 0.0001 + Blue 1 (Brilliant Blue FCF) 0.00001 wt %
[17] = dyes Yellow 203 (Quinoline Yellow WS) 0.0001 + Yellow 5 (Sunset Yellow FCF) 0.0001 wt %
[18] = base perfume Fruity, photostabilizer 0.1 wt %
[19] = base perfume Muge, photostabilizer 0.05 wt %
[20] = natural perfume Jasmine oil, photostabilizer 0.05 wt %
[21] = natural perfume Nelori oil, photostabilizer 0.1 wt %
[22] = synthetic perfume Limonene oil, photostabilizer 0.05 wt %
[23] = synthetic perfume Rose oxide, photostabilizer 0.2 wt %
[24] = dye Green 3 (Fast Green FCF) 0.001, sequestering agent 0.1 alone, photostabilizer 0
[25] = dye Yellow 5 (Sunset Yellow FCF) 0.0001, sequestering agent 0.03 alone, photostabilizer 0

Compound: COc1ccc(C(=O)c2ccccc2)c(O)c1 [2-Hydroxy-4-methoxybenzophenone, reference compound]
- Appearance (visual determination) [1, 5]: Δ
- Remaining ratio (%) [1, 5]: 97.8%
- Appearance (visual determination) [1, 6]: Δ
- Remaining ratio (%) [1, 6]: 97.8%
- Appearance (visual determination) [1, 7]: Δ
- Remaining ratio (%) [1, 7]: 95.2%
- Appearance (visual determination) [1, 8]: Δ
- Remaining ratio (%) [1, 8]: 95.4%
- Appearance (visual determination) ([1]; drug salicylic acid 0.1 wt %): Δ
- Remaining ratio (%) ([1]; drug salicylic acid 0.1 wt %): 98.2%
- Appearance (visual determination) [2, 9]: Δ
- Δ E [2, 9]: 1.76
- Appearance (visual determination) [2, 10]: Δ
- Δ E [2, 10]: 0.75
- Appearance (visual determination) [2, 11]: Δ
- Δ E [2, 11]: 0.71
- Appearance (visual determination) [2, 12]: Δ
- Δ E [2, 12]: 0.82
- Appearance (visual determination) [2, 13]: Δ
- Δ E [2, 13]: 1.11
- Appearance (visual determination) [2, 14]: Δ
- Δ E [2, 14]: 1.26
- Appearance (visual determination) [2, 15]: Δ
- Δ E [2, 15]: 0.88
- Appearance (visual determination) [2, 16]: Δ
- Δ E [2, 16]: 0.82
- Appearance (visual determination) [2, 17]: ◯
- Δ E [2, 17]: 0.52
- odor determination [3, 18]: Δ
- odor determination [3, 19]: Δ
- odor determination ([3]; base perfume Rose, photostabilizer 0.05 wt %): Δ
- odor determination ([3]; base perfume Spicy, photostabilizer 0.2 wt %): Δ
- odor determination ([3]; base perfume Woody, photostabilizer 0.1 wt %): Δ
- odor determination [3, 20]: Δ
- odor determination ([3]; natural perfume Lavender oil, photostabilizer 0.1 wt %): Δ
- odor determination [3, 21]: Δ
- odor determination ([3]; natural perfume Rose oil, photostabilizer 0.05 wt %): Δ
- odor determination ([3]; natural perfume Ylang ylang oil, photostabilizer 0.2 wt %): Δ
- odor determination ([3]; synthetic perfume Citral, photostabilizer 0.1 wt %): Δ
- odor determination [3, 22]: Δ
- odor determination ([3]; synthetic perfume Linalool, photostabilizer 0.05 wt %): Δ
- odor determination ([3]; synthetic perfume Linalyl acetate, photostabilizer 0.1 wt %): Δ
- odor determination [3, 23]: Δ

Compound: COc1cc(O)c(C(=O)c2ccccc2)cc1S(=O)(=O)[O-].[Na+] [2-Hydroxy-4-methoxybenzophenone-5-sulfonate sodium, reference compound]
- Appearance (visual determination) [2, 9]: Δ
- Δ E [2, 9]: 1.67
- Appearance (visual determination) [2, 10]: Δ
- Δ E [2, 10]: 0.74
- Appearance (visual determination) [2, 11]: Δ
- Δ E [2, 11]: 0.80
- Appearance (visual determination) [2, 12]: Δ
- Δ E [2, 12]: 0.78

Compound: OCCN(CCO)c1cnnc(O)c1 [5-bis(2-hydroxyethyl)amino-3-hydroxypyridazine]
- Appearance (visual determination) [2, 9]: ◯
- Δ E [2, 9]: 1.29
- Appearance (visual determination) [2, 10]: ◯
- Δ E [2, 10]: 0.62
- Appearance (visual determination) [2, 11]: ◯
- Δ E [2, 11]: 0.55
- Appearance (visual determination) [2, 12]: ◯
- Δ E [2, 12]: 0.65
- Appearance (visual determination) [2, 13]: ◯
- Δ E [2, 13]: 0.85
- odor determination [3, 19]: ◯
- odor determination [3, 20]: ◯
- odor determination [3, 23]: ◯

Compound: O=C([O-])CN(CCN(CC(=O)[O-])CC(=O)O)CC(=O)[O-].[Na+].[Na+].[Na+] [ethylenediaminetetraacetate trisodium]
- Δ E ([4]; dye Blue 1 (Brilliant Blue FCF) 0.001, sequestering agent 0.05 alone, photostabilizer 0): 8.32
- Δ E [4, 24]: 1.75
- Δ E ([4]; dye Red 227 (Acid Fuchsine D) 0.0001, sequestering agent 0.02 alone, photostabilizer 0): 1.40
- Δ E [4, 25]: 1.72
- Δ E ([4]; dyes Red 106 (Acid Red) 0.00001 + Yellow 5 (Sunset Yellow FCF) 0.0001, sequestering agent blend amount 0.02, photostabilizer 0): 4.26
- Δ E ([4]; dyes Red 227 (Acid Fuchsine D) 0.0001 + Yellow 5 (Sunset Yellow FCF) 0.0001, sequestering agent blend amount 0.02, photostabilizer 0): 1.55
- Δ E ([4]; dyes Red 401 (Violanin R) 0.0001 + Blue 1 (Brilliant Blue FCF) 0.00001, sequestering agent blend amount 0.03, photostabilizer 0): 3.02

Compound: CCCCC(CC)COC(=O)/C=C/c1ccc(OC)cc1 (centres unmarked) [p-Methoxycinnamate octyl, reference compound]
- Appearance (visual determination) [2, 9]: x
- Δ E [2, 9]: 5.23
- Appearance (visual determination) [2, 10]: x
- Δ E [2, 10]: 1.64
- Appearance (visual determination) [2, 11]: x
- Δ E [2, 11]: 1.22
- Appearance (visual determination) [2, 12]: x
- Δ E [2, 12]: 1.56

Compound: sodium polyphosphate
- Δ E [4, 24]: 1.75
- Δ E [4, 25]: 1.70

Second part, led by results:

- Δ E ([4]; dyes Yellow 203 (Quinoline Yellow WS) 0.0001 + Yellow 5 (Sunset Yellow FCF) 0.0001, no sequestering agent, photostabilizer blend amount 0.02): 0.88
- Δ E ([4]; dyes Yellow 203 (Quinoline Yellow WS) 0.0001 + Yellow 5 (Sunset Yellow FCF) 0.0001, with sodium metaphosphate 0.01, photostabilizer blend amount 0.02): 0.55
Compound: OCCNc1ccc(NCCO)nn1 [3,6-Bis(2-hydroxyethylamino) pyridazine]

- Remaining ratio (%) [1, 5]: 98.8%
- Remaining ratio (%) [1, 6]: 98.8%
Compound: OCCNc1ccc(NCCO)nn1 [3,6-Bis(2-hydroxyethylamino)pyridazine, 3,6-bis(2-hydroxyethylamino)pyridazine]
- Appearance (visual determination) [1, 5]: ◯
- Appearance (visual determination) [1, 6]: ◯
- Appearance (visual determination) [2, 9]: ◯
- Δ E [2, 9]: 1.38
- Appearance (visual determination) [2, 10]: ◯
- Δ E [2, 10]: 0.63
- Appearance (visual determination) [2, 11]: ◯
- Δ E [2, 11]: 0.64
- Appearance (visual determination) [2, 12]: ◯
- Δ E [2, 12]: 0.66
- Appearance (visual determination) [2, 17]: ◯
- Δ E [2, 17]: 0.47
- odor determination [3, 18]: ◯
- odor determination [3, 21]: ◯
- odor determination [3, 22]: ◯

- Δ E ([4]; dyes Red 227 (Acid Fuchsine D) 0.0001 + Yellow 5 (Sunset Yellow FCF) 0.0001, no sequestering agent, photostabilizer blend amount 0.01): 1.12
- Δ E ([4]; dyes Red 227 (Acid Fuchsine D) 0.0001 + Yellow 5 (Sunset Yellow FCF) 0.0001, with ethylenediaminetetraacetate trisodium 0.02, photostabilizer blend amount 0.01): 0.68
Compound: Oc1nncc(N2CCCCC2)c1N1CCCCC1 [4,5-Dipipendino-3-hydroxypyridazine]

- Δ E ([4]; dyes Red 401 (Violanin R) 0.0001 + Green 3 (Fast Green FCF) 0.00001, no sequestering agent, photostabilizer blend amount 0.02): 1.52
- Δ E ([4]; dyes Red 401 (Violanin R) 0.0001 + Green 3 (Fast Green FCF) 0.00001, with sodium metaphosphate 0.03, photostabilizer blend amount 0.02): 0.77
Compound: Oc1nncc(N2CCCCC2)c1N1CCCCC1 [4,5-Dipiperidino-33-hydroxy pyridazine]

Reference: US6676932B2, “Ultraviolet absorbent, photostabilizer, ultraviolet ray-absorbing composition, photostabilized composition and external preparation for skin” (Shiseido Co., Ltd., priority 2001, dated 2004)
